Source: US20120046363A1, “DOCOSAHEXAENOIC ACID FOR THE TREATMENT OF HEART FAILURE” (University of Maryland, Baltimore, priority 2009, published 2012)

How the values were obtained:
[1] = Rat abdominal aortic constriction (banding) pressure overload model of HF; assay type: in vivo, male Wistar rats; settings: rats with aortic banding; ALA from flaxseed oil
Excerpt: A dose-response study was completed with EPA+DHA from fish oil using the rat abdominal aortic constriction pressure overload model of HF. In this model a permanent band is tied around the supra-renal abdominal aorta of male Wistar rats (˜200 g) by placing a blunt needle (20G) along the aorta and tying a 3-0 silk suture around both the aorta and the needle. The needle is removed, leaving the diameter of the aortic lumen determined by the diameter of the needle. The increase in aortic pressure results in progressive LV hypertrophy, mitochondrial dysfunction and decreased activity of mitochondrial enzymes, and LV dilation and contractile dysfunction and thus HF^2, 207-213.
Rats were subjected to abdominal aortic banding and assigned them to 12 wks of treatment with either a standard chow or chow supplemented with EPA+DHA from fish oil at either 0.7, 2.3 or 7% of the total energy intake, with an EPA/DHA ration at a 30/70 mix, respectively. These doses correspond to estimated human doses of 1.6, 5.1 and 15.6 g/day (calculated assuming an energy intake of 2000 kcals/day in humans, and 9 kcals/g of EPA+DHA), thus we spanned both sides of the FDA approved human dose of 3.4 g/day. […] There were no differences in body mass or heart rate among groups. LV mass was 37% greater in the banded rats compared to sham on the standard diet. […]

[2] = mammalian cells; cited from earlier work
[3] = Plasma free fatty acids and triglycerides after dietary supplementation (Series 1); assay type: in vivo, male Wistar rats; settings: 2.5% of caloric intake, 8 weeks, FIG. 7
Experimental: Experimental Design: The animal protocol was conducted according to the Guideline for the Care and Use of Laboratory Animals (NIH publication 85-23) and was approved by the University of Maryland School of Medicine Institutional Animal Care and Use Committee. Investigators were blinded to treatment when measurements were performed. The animals were maintained on a reverse 12-h light-dark cycle and all procedures were performed in the fed state between 3 and 6 h from the start of the dark phase. Two series of experiments were performed. In the initial studies (Series 1) male Wistar rats weighing 190-200 g were fed a standard low fat diet (CTRL) or modified standard diet containing DHA or EPA at 2.5% of total caloric intake, which corresponds to a human intake of approximately 5.5 g/day (calculated assuming an energy intake of 2000 kcal/day and 9 kcal/g of fat). The rats were maintained on the diet for 8 weeks. […] Plasma from these animals was analyzed for free fatty acids and triglyceride levels, and cardiac mitochondria for respiration, Ca^2+ retention capacity (an index of MPTP opening), VDAC and cyclophilin D, and membrane phospholipid composition as described below. […]
Metabolic and Biochemical Parameters: Free fatty acids and triglycerides were assessed in the plasma using commercially available kits (Wako, Richmond, Va.). […] The digitized image was analyzed with Odyssey® software.

[4] = tested on: isolated cardiac mitochondria; experiment: Cardiac mitochondrial phospholipid fatty acid composition by gas chromatography; assay type: in vivo, male Wistar rats; settings: Series 1, 8 weeks diet, mean ± SEM
Experimental: (§1) Experimental Design: The animal protocol was conducted according to the Guideline for the Care and Use of Laboratory Animals (NIH publication 85-23) and was approved by the University of Maryland School of Medicine Institutional Animal Care and Use Committee. Investigators were blinded to treatment when measurements were performed. The animals were maintained on a reverse 12-h light-dark cycle and all procedures were performed in the fed state between 3 and 6 h from the start of the dark phase. Two series of experiments were performed. In the initial studies (Series 1) male Wistar rats weighing 190-200 g were fed a standard low fat diet (CTRL) or modified standard diet containing DHA or EPA at 2.5% of total caloric intake, which corresponds to a human intake of approximately 5.5 g/day (calculated assuming an energy intake of 2000 kcal/day and 9 kcal/g of fat). The rats were maintained on the diet for 8 weeks. Following dietary treatment, rats were anesthetized with isoflurane, blood was drawn, and the heart was harvested for biochemical analysis and mitochondrial isolation. Plasma from these animals was analyzed for free fatty acids and triglyceride levels, and cardiac mitochondria for respiration, Ca^2+ retention capacity (an index of MPTP opening), VDAC and cyclophilin D, and membrane phospholipid composition as described below. Following completion of Series 1, a second series of animal studies (Series 2) were performed to assess mitochondrial swelling using a light scattering assay, and the effects of different respiratory substrates on Ca^2+ retention capacity in mitochondria from control and DHA supplemented rats. Animals were treated for 10 weeks and were fed either CTRL or DHA (2.5% of total caloric intake).
(§2) Mitochondrial Preparation: Mitochondria were isolated as previously described^228. LV tissue (400-500 mg) was minced and homogenized in 1:10 cold modified Chappel-Perry buffer (100 mM KCl, 50 mM MOPS, 5 mM MgSO4, 1 mM ATP, 1 mM EGTA, 2 mg/ml BSA), and the homogenates were centrifuged at 500×g. Subsequent centrifugation allowed for separation and purification of the subsarcolemmal mitochondria. The concentration of mitochondrial protein was measured by the Lowry method using bovine serum albumin as a standard.
(§3) Membrane Lipid Composition: Cardiac phospholipid fatty acid composition was assessed in a subset of animals from Series 1 (n=7-9/group) on isolated cardiac mitochondria homogenates by gas chromatography with a flame ionization detector according to a modification of the transesterification method as previously described^228. CL composition was assessed on isolated cardiac mitochondria by electrospray ionization mass spectrometry using 1,1′,2,2′-tetramyristoyl CL as an internal standard as previously described (n=9/group)^228,229, 230.

[5] = tested on: isolated cardiac mitochondria; experiment: Cardiac mitochondrial cardiolipin (CL) content and composition by electrospray ionization mass spectrometry; assay type: in vivo, male Wistar rats
Experimental: Experimental Design: The animal protocol was conducted according to the Guideline for the Care and Use of Laboratory Animals (NIH publication 85-23) and was approved by the University of Maryland School of Medicine Institutional Animal Care and Use Committee. Investigators were blinded to treatment when measurements were performed. The animals were maintained on a reverse 12-h light-dark cycle and all procedures were performed in the fed state between 3 and 6 h from the start of the dark phase. Two series of experiments were performed. In the initial studies (Series 1) male Wistar rats weighing 190-200 g were fed a standard low fat diet (CTRL) or modified standard diet containing DHA or EPA at 2.5% of total caloric intake, which corresponds to a human intake of approximately 5.5 g/day (calculated assuming an energy intake of 2000 kcal/day and 9 kcal/g of fat). The rats were maintained on the diet for 8 weeks. Following dietary treatment, rats were anesthetized with isoflurane, blood was drawn, and the heart was harvested for biochemical analysis and mitochondrial isolation. Plasma from these animals was analyzed for free fatty acids and triglyceride levels, and cardiac mitochondria for respiration, Ca^2+ retention capacity (an index of MPTP opening), VDAC and cyclophilin D, and membrane phospholipid composition as described below. […]
Mitochondrial Preparation: Mitochondria were isolated as previously described^228. […] The concentration of mitochondrial protein was measured by the Lowry method using bovine serum albumin as a standard.
as §3

[6] = tested on: isolated cardiac mitochondria; experiment: Mitochondrial respiration (oxygen consumption, Clark-type electrode); assay type: in vivo, male Wistar rats; settings: for P:O: measurements without oligomycin; for RCR: ratio of State 3 to State 4 rate with oligomycin
Experimental: as §1, §2
Mitochondrial respiration: Mitochondrial oxygen consumption was measured using a Clark-type oxygen electrode (Qubit Systems, Ontario, Canada). Mitochondria (0.25 mg protein) were suspended in 0.5 ml solution consisting of 100 mM KCl, 50 mM MOPS, 5 mM KH2PO4, 1 mM EGTA, and 0.5 mg fatty acid-free bovine serum albumin, at pH 7.4 and 37° C. State 3 (ADP-stimulated) and state 4 (non-phosphorylating) respiration were measured with glutamate+malate (10 and 5 mM, respectively), pyruvate+malate (10 and 5 mM, respectively) and palmitoylcarnitine+malate (40 μM and 5 mM, respectively) to assess respiration through complex I-IV, while succinate+rotenone (10 mM and 7.5 μM, respectively), were used to assess respiration through complex II-IV of the ETC exclusively. State 4 respiration was also measured in the presence of oligomycin to inhibit the mitochondrial ATP synthase.

[7] = tested on: mitochondrial permeability transition pore (MPTP); experiment: Ca2+ retention capacity (index of MPTP opening) in mitochondria from diet-treated rats, Series 1; assay type: in vivo, male Wistar rats
Experimental: as §1, §2

VDAC1 = experiment: Western blot of isolated mitochondria, densitometry; assay type: in vivo, male Wistar rats; settings: CTRL 1.00 ± 0.13
Experimental: (§4) Metabolic and Biochemical Parameters: Free fatty acids and triglycerides were assessed in the plasma using commercially available kits (Wako, Richmond, Va.). Mitochondrial proteins were separated by electrophoresis in 4-12% NuPage gels, transferred onto a nitrocellulose membrane, and incubated with specific antibodies to cyclophilin D and voltage-dependent anion channel (VDAC) (1:10,000 and 1:5000, respectively, both from Mitosciences, Eugene, Oreg.). Fluorescence-conjugated secondary antibodies (IRDye 800, 1:10,000; LI-COR Bioscience) were used for incubation before the membranes were scanned with Odyssey® infrared imaging system (LI-COR Bioscience). The digitized image was analyzed with Odyssey® software.

VDAC2 = experiment: as above; assay type: in vivo, male Wistar rats; settings: CTRL 1.00 ± 0.15
Experimental: as §4

cyclophilin D = experiment: as above; assay type: in vivo, male Wistar rats; settings: CTRL 1.00 ± 0.08
Experimental: as §4

[8] = similar patient population to GISSI-HF; cited from earlier work
tumor necrosis factor = target: T1, tumor necrosis factor (Homo sapiens, UniProt P01375); settings: direct cytokine blockade; cited from earlier work
T1 construct: host or cells: heart-failure patients
T1 sequence (P01375 77-233 limits assumed): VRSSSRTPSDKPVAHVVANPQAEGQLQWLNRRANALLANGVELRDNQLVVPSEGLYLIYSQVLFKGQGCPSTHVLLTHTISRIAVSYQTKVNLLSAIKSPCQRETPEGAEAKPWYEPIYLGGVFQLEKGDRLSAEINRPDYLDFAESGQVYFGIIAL

## CC/C=C\C/C=C\C/C=C\CCCCCCCC(=O)O [ALA, α-linolenic acid]
[1]
  cardiomyocyte apoptosis with supplementation: less apoptosis
[2]
  conversion of ALA to EPA: ~10%

## CC/C=C\C/C=C\C/C=C\C/C=C\C/C=C\CCCC(=O)O [EPA, eicosapentanoic acid]
[3]
  plasma free fatty acid concentration compared to CTRL: lowered
  plasma triglyceride concentration compared to CTRL: lowered
[4]
  Mitochondrial phospholipid C18:0: 19.8 ± 0.8 molar percent of total phospholipid fatty acid
  Mitochondrial phospholipid C18:1n7: 4.2 ± 0.2 molar percent of total phospholipid fatty acid
  Mitochondrial phospholipid C18:1n9: 11.8 ± 1.0 molar percent of total phospholipid fatty acid
  Mitochondrial phospholipid C18:2n6: 22.4 ± 0.8 molar percent of total phospholipid fatty acid
  Mitochondrial phospholipid Total ω-3 PUFA: 14.3 ± 0.3 molar percent of total phospholipid fatty acid
[4]; n = 7-8/group
  Mitochondrial phospholipid C16:0: 10.8 ± 0.6 molar percent of total phospholipid fatty acid
[4]; BQL = below the quantifiable limit (limit of detection = 0.41%)
  Mitochondrial phospholipid C16:1: 4.5 ± 1.8 molar percent of total phospholipid fatty acid
[4]; BQL in control
  Mitochondrial phospholipid C20:3n6: 1.1 ± 0.2 molar percent of total phospholipid fatty acid
[4]; DHA
  Mitochondrial phospholipid C22:6n3: 8.3 ± 0.2 molar percent of total phospholipid fatty acid
[4]; EPA, BQL in control
  Mitochondrial phospholipid C20:5n3: 6.0 ± 0.2 molar percent of total phospholipid fatty acid
[4]; arachidonic acid (ARA)
  Mitochondrial phospholipid C20:4n6: 9.8 ± 0.8 molar percent of total phospholipid fatty acid
[5]; Series 1, 8 weeks diet, CTRL 10.7±0.8, DHA vs CTRL p<0.08
  total CL content: 11.1±0.8 nmols/mg mito prot
[5]; Series 1, compared to CTRL, FIG. 9
  CL species containing one ARA and three linoleic acid moieties (ARA1L3CL): decrease
[6]; Glutamate + Malate
  State 4 (+ oligomycin) respiration: 19.1 ± 3.3 ng atoms O · mg^−1 · min^−1
  State 4 (− oligomycin) respiration: 32.1 ± 4.8 ng atoms O · mg^−1 · min^−1
  P:O: 2.76 ± 0.23
  RCR: 7.0 ± 1.0
[6]; Glutamate + Malate, mean ± SEM
  State 3 respiration: 119.3 ± 13.4 ng atoms O · mg^−1 · min^−1
[6]; Palmityl-carnitine + Malate
  State 3 respiration: 243.7 ± 28.1 ng atoms O · mg^−1 · min^−1
  State 4 (+ oligomycin) respiration: 29.7 ± 3.8 ng atoms O · mg^−1 · min^−1
  State 4 (− oligomycin) respiration: 59.4 ± 7.0 ng atoms O · mg^−1 · min^−1
  P:O: 2.57 ± 0.14
  RCR: 9.5 ± 1.8
[6]; Pyruvate + Malate
  State 3 respiration: 221.2 ± 31.0 ng atoms O · mg^−1 · min^−1
  State 4 (+ oligomycin) respiration: 43.3 ± 5.2 ng atoms O · mg^−1 · min^−1
  State 4 (− oligomycin) respiration: 63.5 ± 6.4 ng atoms O · mg^−1 · min^−1
  P:O: 2.44 ± 0.30
  RCR: 5.1 ± 0.3
[6]; Succinate + Rotenone
  State 3 respiration: 307.2 ± 37.1 ng atoms O · mg^−1 · min^−1
  State 4 (+ oligomycin) respiration: 80.3 ± 11.7 ng atoms O · mg^−1 · min^−1
  State 4 (− oligomycin) respiration: 102.1 ± 11.5 ng atoms O · mg^−1 · min^−1
  P:O: 1.48 ± 0.08
  RCR: 4.1 ± 0.5
[6]; pyruvate+malate, absence and presence of oligomycin, vs control, p<0.05
  decrease of state 4 respiration: no effect
[6]; pyruvate+malate, vs control, p<0.05
  increase of RCR: no effect
[7]; glutamate + malate, without CsA, CTRL 83.0±8.7
  Ca2+ required to elicit MPTP: 80.8±4.9 nmol Ca^2+/mg mito prot
[7]; mitochondria of diet group with addition of 100 nM CsA
  Ca2+ required to elicit MPTP: 130.6±12.8 nmol Ca^2+/mg mito prot
VDAC1
  VDAC 1 protein, densitometry: 0.87 ± 0.16
VDAC2
  VDAC 2 protein, densitometry: 0.94 ± 0.17
Cyclophilin D
  Cyclophilin D protein, densitometry: 1.00 ± 0.08

## CC(C)c1nc(N(C)S(C)(=O)=O)nc(-c2ccc(F)cc2)c1/C=C/[C@@H](O)C[C@@H](O)CC(=O)O [rosuvastatin]
[8]
  beneficial effect in HF patients: no beneficial effect

## ETANERCEPT
Tumor necrosis factor
  efficacy in HF patients: not effective
